Earlier results as cited in patent publication US7799756B2, “Processes for stereoselective synthesis of trans ISATX247” (Albany Molecular Research, Inc., priority 2004, dated 2010).

Tests used:
[1] = phase IIa, kidney transplantation, mixture of cis and trans isomers
[2] = over natural cyclosporins and presently known cyclosporin derivatives
[3] = compared to the corresponding cis-isomer
[4] = compared to the corresponding cis-isomer; remark: listed apart in the source

| Compound | clinical trial outcome [1] | potency [2] | activity on immunosuppression [3] | therapeutic index [4] |
| --- | --- | --- | --- | --- |
| C=CC=CC[C@@H](C)[C@@H](O)C1C(=O)N[C@H](CC)C(=O)N(C)CC(=O)N(C)[C@@H](CC(C)C)C(=O)N[C@H](C(C)C)C(=O)N(C)[C@H](CC(C)C)C(=O)N[C@H](C)C(=O)N[C@@H](C)C(=O)N(C)[C@H](CC(C)C)C(=O)N(C)[C@H](CC(C)C)C(=O)N(C)[C@H](C(C)C)C(=O)N1C (stereo partly drawn) [ISATX247, cyclo {(E,Z)-(2S,3R,4R)-3-hydoxy-4-methyl-2-(methylamino)-6,8-nonadienoyl-L-2-aminobutyryl-N-methyl-glycyl-N -methyl-L-leucyl-L-valyl-N-methyl-L-leucyl-L-alanyl-D-alanyl-N-methyl-L-leucyl-N-methyl-L-leucyl-N-methyl-L-valyl}] | positive results | enhanced potency |  |  |
| trans ISATX247 |  |  | better activity on immunosuppression | improved therapeutic index |
